Clearance data for seven compounds are collected here from US8580918B2, “Peptidic GLP-2 agonists” (Ferring B.V., priority 2009, dated 2013).

The nature of this data set: Pharmacokinetics in rats after intravenous bolus injection (systemic clearance). It is filed as in vivo. Conditions: rat, adult male Sprague-Dawley rats, i.v. bolus, read-out: CL (ml/kg/min) Average. Here is the method: Pharmacokinetic (PK) parameters of illustrative agonists of the GLP-2 receptor were determined in adult male Sprague-Dawley rats post intravenous bolus injection of compounds at doses of 0.1-1.0 mg/kg. Three or four doubly cannulated animals per compound were dosed via jugular vein, blood samples were collected at several intervals via carotid artery, and plasma samples were prepared from whole blood using K2EDTA as anticoagulant. Subsequent bioanalysis of samples included compound extraction and plasma concentration determination using standard LC/MS/MS methods. Analyte concentration was calculated from internal standard normalized peak area and calibration curves.
For calculation of PK parameters the compound concentration-time curves were analyzed with the noncompartmental data analysis software package PK Solutions 2.0™ (Summit Research Services, Montrose Colo.). The systemic clearance per kg body weight (CL) was calculated as the dose per kg body weight divided by the AUC extrapolated to infinity based on trapezoid calculation (AUC∞). Values reported are the arithmetic mean and standard deviation from the number of animals used for each compound as indicated on Table 3.

Where [1] appears, read: plasma, 0.2 mg FB/kg, dose 0.20 mg FB/kg.

Like-named read-outs stand apart in the source and are kept apart here. Where a SMILES comes first, the peptide text is derived from it. Where no end group is shown, it is not given here. [ ]: non-standard residue; d: D form. The star is where a group is joined. Dip = N[C@H](C(=O)O)C(c1ccccc1)c1ccccc1; 1Nal = N[C@@H](Cc1cccc2ccccc12)C(=O)O; PEG4 = NCCOCCOCCOCCOCCC(=O)O; Nle = CCCC[C@H](N)C(=O)O; NHBn = c1ccc(CN*)cc1

For the compound `CCCC[C@H](NC(=O)[C@H](CCC(=O)O)NC(=O)[C@H](CC(=O)O)NC(=O)[C@H](CO)NC(=O)[C@H](Cc1ccccc1)NC(=O)[C@H](CO)NC(=O)CNC(=O)[C@H](CC(=O)O)NC(=O)CNC(=O)[C@@H](N)Cc1cnc[nH]1)C(=O)N[C@@H](CC(N)=O)C(=O)N[C@H](C(=O)N[C@H](C(=O)N[C@@H](CC(C)C)C(=O)N[C@@H](CC(=O)O)C(=O)N[C@@H](Cc1cccc2ccccc12)C(=O)N[C@@H](CC(C)C)C(=O)N[C@@H](C)C(=O)N[C@@H](C)C(=O)N[C@@H](CCCNC(=N)N)C(=O)N[C@@H](CC(=O)O)C(=O)N[C@@H](Cc1ccccc1)C(=O)N[C@H](C(=O)N[C@@H](CC(N)=O)C(=O)N[C@@H](Cc1c[nH]c2ccccc12)C(=O)N[C@@H](CC(C)C)C(=O)N[C@H](C(=O)N[C@@H](CCC(N)=O)C(=O)N[C@H](C(=O)N[C@@H](CCCCN)C(N)=O)[C@@H](C)O)[C@@H](C)CC)[C@@H](C)CC)[C@@H](C)CC)[C@@H](C)O` [Compound 17, [Gly2,Nle10,1-Nal16] hGLP-2 (1-30)-NH2] (H-HGDGSFSDE[Nle]NTILD[1Nal]LAARDFINWLIQTK-NH2), the clearance under setting [1] was 0.43 mL/kg/min.

Turning to `CCCC[C@H](NC(=O)[C@H](CCC(=O)O)NC(=O)[C@H](CC(=O)O)NC(=O)[C@H](CO)NC(=O)[C@H](Cc1ccccc1)NC(=O)[C@H](CO)NC(=O)CNC(=O)[C@H](CC(=O)O)NC(=O)CNC(=O)[C@@H](N)Cc1cnc[nH]1)C(=O)N[C@H](Cc1ccccc1)C(=O)N[C@H](C(=O)N[C@H](C(=O)N[C@@H](CC(C)C)C(=O)N[C@@H](CC(=O)O)C(=O)N[C@@H](CC(C)C)C(=O)N[C@@H](CC(C)C)C(=O)N[C@@H](C)C(=O)N[C@@H](C)C(=O)N[C@@H](CCCNC(=N)N)C(=O)N[C@@H](CC(=O)O)C(=O)N[C@@H](Cc1ccccc1)C(=O)N[C@H](C(=O)N[C@@H](CC(N)=O)C(=O)N[C@@H](Cc1c[nH]c2ccccc12)C(=O)N[C@@H](CC(C)C)C(=O)N[C@H](C(=O)N[C@@H](CCC(N)=O)C(=O)N[C@H](C(=O)N[C@@H](CCCCN)C(=O)N[C@H](C(=O)N[C@H](C(=O)N[C@@H](CC(=O)O)C(=O)NCCOCCOCCOCCOCCC(N)=O)[C@@H](C)O)[C@@H](C)CC)[C@@H](C)O)[C@@H](C)CC)[C@@H](C)CC)[C@@H](C)CC)[C@@H](C)O` [Compound 55, [Gly2,Nle10,D-Phe11,Leu16] hGLP-2(1-33)-NH—((CH2)2O)4—(CH2)2—C(O)—NH2] (H-HGDGSFSDE[Nle][dF]TILDLLAARDFINWLIQTKITD[PEG4]-NH2), the clearance under setting [1] was found to be 0.23 mL/kg/min.

With `CCCC[C@H](NC(=O)[C@H](CCC(=O)O)NC(=O)[C@H](CC(=O)O)NC(=O)[C@H](CO)NC(=O)[C@H](Cc1ccccc1)NC(=O)[C@H](CO)NC(=O)CNC(=O)[C@H](CC(=O)O)NC(=O)CNC(=O)[C@@H](N)Cc1c[nH]cn1)C(=O)N[C@H](Cc1ccccc1)C(=O)N[C@H](C(=O)N[C@H](C(=O)N[C@@H](CC(C)C)C(=O)N[C@@H](CC(=O)O)C(=O)N[C@@H](Cc1ccccc1)C(=O)N[C@@H](CC(C)C)C(=O)N[C@@H](C)C(=O)N[C@@H](C)C(=O)N[C@@H](CCCNC(=N)N)C(=O)N[C@@H](CC(=O)O)C(=O)N[C@@H](Cc1ccccc1)C(=O)N[C@H](C(=O)N[C@@H](CC(N)=O)C(=O)N[C@@H](Cc1c[nH]c2ccccc12)C(=O)N[C@@H](CC(C)C)C(=O)N[C@H](C(=O)N[C@@H](CCC(N)=O)C(=O)N[C@H](C(=O)N[C@@H](CCCCN)C(=O)N[C@H](C(=O)N[C@H](C(=O)N[C@@H](CC(=O)O)C(=O)O)[C@@H](C)O)[C@@H](C)CC)[C@@H](C)O)[C@@H](C)CC)[C@@H](C)CC)[C@@H](C)CC)[C@@H](C)O` [Compound 64, [Gly2,Nle10,D-Phe11,Phe16] hGLP-2(1-33)-OH] (H-HGDGSFSDE[Nle][dF]TILDFLAARDFINWLIQTKITD-OH), the clearance under setting [1] amounted to 0.15 mL/kg/min.

For the compound “HGEGSFSSELSTILDALAARDFIAWLIATKITDKKKKKK-NH2 (C-terminus assumed) [ZP-1846, reference compound]”, the clearance (in vivo, dose 0.20 mg FB/kg) amounted to 2.8 mL/kg/min.

For the compound `CCCC[C@H](NC(=O)[C@H](CCC(=O)O)NC(=O)[C@H](CC(=O)O)NC(=O)[C@H](CO)NC(=O)[C@H](Cc1ccccc1)NC(=O)[C@H](CO)NC(=O)CNC(=O)[C@H](CC(=O)O)NC(=O)CNC(=O)[C@@H](N)Cc1c[nH]cn1)C(=O)N[C@H](Cc1ccccc1)C(=O)N[C@H](C(=O)N[C@H](C(=O)N[C@@H](CC(C)C)C(=O)N[C@@H](CC(=O)O)C(=O)N[C@@H](CC(C)C)C(=O)N[C@@H](CC(C)C)C(=O)N[C@@H](C)C(=O)N[C@@H](C)C(=O)N[C@@H](CCCNC(=N)N)C(=O)N[C@@H](CC(=O)O)C(=O)N[C@@H](Cc1ccccc1)C(=O)N[C@H](C(=O)N[C@@H](CC(N)=O)C(=O)N[C@@H](Cc1c[nH]c2ccccc12)C(=O)N[C@@H](CC(C)C)C(=O)N[C@H](C(=O)N[C@@H](CCC(N)=O)C(=O)N[C@H](C(=O)N[C@@H](CCCCN)C(=O)N[C@H](C(=O)N[C@H](C(=O)N[C@@H](CC(=O)O)C(=O)NCc1ccccc1)[C@@H](C)O)[C@@H](C)CC)[C@@H](C)O)[C@@H](C)CC)[C@@H](C)CC)[C@@H](C)CC)[C@@H](C)O` [Compound 58, [Gly2,Nle10,D-Phe11,Leu16] hGLP-2(1-33)-NH-Benzyl] (H-HGDGSFSDE[Nle][dF]TILDLLAARDFINWLIQTKITD-NHBn), the clearance under setting [1] came to 0.1 mL/kg/min.

As to `CCCC[C@H](NC(=O)[C@H](CCC(=O)O)NC(=O)[C@H](CC(=O)O)NC(=O)[C@H](CO)NC(=O)[C@H](Cc1ccccc1)NC(=O)[C@H](CO)NC(=O)CNC(=O)[C@H](CC(=O)O)NC(=O)CNC(=O)[C@@H](N)Cc1c[nH]cn1)C(=O)N[C@@H](CC(N)=O)C(=O)N[C@H](C(=O)N[C@H](C(=O)N[C@@H](CC(C)C)C(=O)N[C@@H](CC(=O)O)C(=O)N[C@H](C(=O)N[C@@H](CC(C)C)C(=O)N[C@@H](C)C(=O)N[C@@H](C)C(=O)N[C@@H](CCCNC(=N)N)C(=O)N[C@@H](CC(=O)O)C(=O)N[C@@H](Cc1ccccc1)C(=O)N[C@H](C(=O)N[C@@H](CC(N)=O)C(=O)N[C@@H](Cc1c[nH]c2ccccc12)C(=O)N[C@@H](CC(C)C)C(=O)N[C@H](C(=O)N[C@@H](CCC(N)=O)C(=O)N[C@H](C(=O)N[C@@H](CCCCN)C(N)=O)[C@@H](C)O)[C@@H](C)CC)[C@@H](C)CC)C(c1ccccc1)c1ccccc1)[C@@H](C)CC)[C@@H](C)O` [Compound 26, [Gly2,Nle10,Dip16] hGLP-2 (1-30)-NH2] (H-HGDGSFSDE[Nle]NTILD[Dip]LAARDFINWLIQTK-NH2), the clearance under setting [1] is 0.33 mL/kg/min.

For `CCCC[C@H](NC(=O)[C@H](CCC(=O)O)NC(=O)[C@H](CC(=O)O)NC(=O)[C@H](CO)NC(=O)[C@H](Cc1ccccc1)NC(=O)[C@H](CO)NC(=O)CNC(=O)[C@H](CC(=O)O)NC(=O)CNC(=O)[C@@H](N)Cc1c[nH]cn1)C(=O)N[C@H](C(=O)N[C@H](C(=O)N[C@H](C(=O)N[C@@H](CC(C)C)C(=O)N[C@@H](CC(=O)O)C(=O)N[C@@H](CC(N)=O)C(=O)N[C@@H](CC(C)C)C(=O)N[C@@H](C)C(=O)N[C@@H](C)C(=O)N[C@@H](CCCNC(=N)N)C(=O)N[C@@H](CC(=O)O)C(=O)N[C@@H](Cc1ccccc1)C(=O)N[C@H](C(=O)N[C@@H](CC(N)=O)C(=O)N[C@@H](Cc1c[nH]c2ccccc12)C(=O)N[C@@H](CC(C)C)C(=O)N[C@H](C(=O)N[C@@H](CCC(N)=O)C(=O)N[C@H](C(=O)N[C@@H](CCCCN)C(N)=O)[C@@H](C)O)[C@@H](C)CC)[C@@H](C)CC)[C@@H](C)CC)[C@@H](C)O)[C@@H](C)CC` [Compound 31, [Gly2,Nle10,Ile11] hGLP-2 (1-30)-NH2] (H-HGDGSFSDE[Nle]ITILDNLAARDFINWLIQTK-NH2), the clearance (plasma, dose 0.18 mg FB/kg) is 5.6 mL/kg/min.
